# Measurements from patent publication US7728020B2, “Amino acid derivatives” (Novartis AG, priority 2004, dated 2010).
# How the values were obtained:
# [1] = target: T1, human S1P receptor EDG-1 (S1P1) (Homo sapiens, UniProt P21453); experiment: GTP[γ-35S] binding SPA, S1P receptor profiling (S1P1); format: biochemical; set-up: key to S1P1 mode of action: Agon = agonist; conditions: GTP[γ-35S] SPA
# T1 construct: expressed in transfected cells
# Method: (§1) Sphingosine-1-phosphate (SIP) Receptor Profiling
# (§2) Agonist activities of compounds are tested on the human S1P receptors EDG-1 (S1P1), EDG-3 (S1P3), EDG-5 (S1P2), EDG-6 (S1P4) and EDG-8 (S1P5). […] The assay technology used is SPA (scintillation proximity based assay). Briefly, DMSO dissolved compounds are serially diluted and added to SPA-based (Amersham-Pharmacia) immobilised S1P receptor expressing membrane protein (10-20 μg/well) in the presence of 50 mM Hepes, 100 mM NaCl, 10 mM MgCl2, 10 μM GDP, 0.1% fat free BSA and 0.2 nM GTP [γ^35S] (1200 Ci/mmol). After incubation in 96 well microtiterplates at RT for 120 min, unbound GTP [γ^35S] is separated by a centrifugation step. Luminescence of SPA beads triggered by membrane bound GTP [γ^35S] is quantified with a TOPcount plate reader (Packard). EC50s are calculated using standard curve fitting software. In this assay, the compounds of formula I have a binding affinity to S1P1 receptor <50 nM.
# [2] = target: T2, human S1P receptor EDG-3 (S1P3) (Homo sapiens, UniProt Q99500); experiment: GTP[γ-35S] binding SPA, S1P receptor profiling (S1P3); format: biochemical; set-up: key to S1P3 mode of action: Agon = agonist; conditions: GTP[γ-35S] SPA
# T2 construct: expressed in transfected cells
# Method: as §1, §2
# [3] = target: T3, human S1P receptor EDG-6 (S1P4) (Homo sapiens, UniProt O95977); experiment: GTP[γ-35S] binding SPA, S1P receptor profiling (S1P4); format: biochemical; set-up: key to S1P4 mode of action: Agon = agonist; conditions: GTP[γ-35S] SPA
# T3 construct: expressed in transfected cells
# T3 sequence (O95977 1-384): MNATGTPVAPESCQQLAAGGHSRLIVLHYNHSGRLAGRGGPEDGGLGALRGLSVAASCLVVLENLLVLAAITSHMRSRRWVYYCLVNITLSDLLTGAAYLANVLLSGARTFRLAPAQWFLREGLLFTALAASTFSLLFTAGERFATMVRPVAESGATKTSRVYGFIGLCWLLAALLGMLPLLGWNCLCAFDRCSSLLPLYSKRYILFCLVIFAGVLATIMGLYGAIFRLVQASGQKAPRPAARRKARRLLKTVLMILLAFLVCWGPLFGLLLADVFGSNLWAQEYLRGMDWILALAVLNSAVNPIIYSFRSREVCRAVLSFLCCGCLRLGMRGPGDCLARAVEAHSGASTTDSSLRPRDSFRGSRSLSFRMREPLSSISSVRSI
# Method: as §1, §2
# [4] = target: T4, human S1P receptor EDG-8 (S1P5) (Homo sapiens, UniProt Q9H228); experiment: GTP[γ-35S] binding SPA, S1P receptor profiling (S1P5); format: biochemical; set-up: key to S1P5 mode of action: Agon = agonist; conditions: GTP[γ-35S] SPA
# T4 construct: expressed in transfected cells
# Method: as §1, §2
# [5] = tested on: peripheral blood lymphocytes; experiment: Blood lymphocyte depletion; format: in vivo; conditions: rats, 3.2 mg/kg p.o. after 6 h
# Method: B. In vivo: Blood Lymphocyte Depletion
# A compound of formula I or the vehicle is administered orally by gavage to rats. Tail blood for hematological monitoring is obtained on day −1 to give the baseline individual values, and at 2, 6, 24, 48 and 72 hours after application. In this assay, the compounds of formula I deplete peripheral blood lymphocytes when administered at a dose of 0.03 to 3 mg/kg. For example, following results are obtained: depletion of peripheral blood lymphocytes by more than 50%.
# [6] = membranes of transfected CHO or RH7777 cells
# T4 sequence (Q9H228 whole entry): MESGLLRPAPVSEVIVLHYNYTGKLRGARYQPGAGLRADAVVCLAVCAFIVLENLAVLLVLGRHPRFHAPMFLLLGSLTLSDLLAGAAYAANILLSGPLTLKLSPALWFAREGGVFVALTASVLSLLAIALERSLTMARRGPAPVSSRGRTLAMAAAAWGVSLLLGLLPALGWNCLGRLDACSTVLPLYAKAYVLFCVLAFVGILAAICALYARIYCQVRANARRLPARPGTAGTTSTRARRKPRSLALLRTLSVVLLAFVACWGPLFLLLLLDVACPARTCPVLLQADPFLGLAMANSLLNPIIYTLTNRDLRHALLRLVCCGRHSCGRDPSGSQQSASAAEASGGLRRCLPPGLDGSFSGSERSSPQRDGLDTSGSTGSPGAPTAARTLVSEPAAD
# T2 sequence (Q99500 whole entry): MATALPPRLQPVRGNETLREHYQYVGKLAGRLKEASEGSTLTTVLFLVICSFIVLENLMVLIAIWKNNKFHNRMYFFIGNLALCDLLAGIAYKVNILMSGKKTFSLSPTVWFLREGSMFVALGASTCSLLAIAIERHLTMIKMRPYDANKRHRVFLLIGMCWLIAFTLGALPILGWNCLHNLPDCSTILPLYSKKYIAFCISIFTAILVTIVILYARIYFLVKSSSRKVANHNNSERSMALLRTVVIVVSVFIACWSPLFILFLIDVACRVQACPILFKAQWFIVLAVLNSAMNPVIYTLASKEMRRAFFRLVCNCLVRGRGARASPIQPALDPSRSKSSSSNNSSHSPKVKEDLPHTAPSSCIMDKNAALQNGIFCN
# T1 sequence (P21453 whole entry): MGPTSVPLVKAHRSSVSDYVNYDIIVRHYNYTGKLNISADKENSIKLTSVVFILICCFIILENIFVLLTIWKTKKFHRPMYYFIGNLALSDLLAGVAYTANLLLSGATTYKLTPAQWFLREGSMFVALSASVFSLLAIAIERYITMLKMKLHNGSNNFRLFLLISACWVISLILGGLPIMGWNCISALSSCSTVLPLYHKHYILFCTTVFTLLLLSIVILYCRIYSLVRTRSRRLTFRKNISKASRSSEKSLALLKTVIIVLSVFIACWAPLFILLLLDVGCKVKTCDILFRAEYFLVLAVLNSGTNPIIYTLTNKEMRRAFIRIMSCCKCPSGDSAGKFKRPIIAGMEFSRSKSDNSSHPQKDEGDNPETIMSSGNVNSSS
compound,measurement,setting,value
"CCCCCCCOc1ccc(CC[C@@](C)(N)CC(=O)O)cc1 [Example 1, (R)-3-Amino-5-(4-heptyloxy-phenyl)-3-methyl-pentanoic acid]",S1P1 mode of action,[1],Agon
same,EC50,[1]; [6],11 nM
same,S1P3 mode of action,[2],Agon
same,EC50,[2]; [6],209 nM
same,S1P4 mode of action,[3],Agon
same,EC50,[3]; [6],117 nM
same,S1P5 mode of action,[4],Agon
same,EC50,[4]; [6],203 nM
same,depletion of peripheral blood lymphocytes,[5],more than 50%
